Source: patent US10188743B2, “Cytisine-linked isoflavonoid antineoplastic agents for the treatment of cancer” (UNIVERSITY OF KENTUCKY RESEARCH FOUNDATION, priority 2016, dated 2019)

Key:
[1] = biological target: T1, α,β-dehydrogenase activity of HSD17B4 (Homo sapiens, UniProt P51659); assay: HSD17B4 dehydrogenase assay (NADH readout); assay type: biochemical
T1 construct: His-tag; made in house; host or cells: E. coli BL21 (pET28)
T1 sequence (P51659 1-736): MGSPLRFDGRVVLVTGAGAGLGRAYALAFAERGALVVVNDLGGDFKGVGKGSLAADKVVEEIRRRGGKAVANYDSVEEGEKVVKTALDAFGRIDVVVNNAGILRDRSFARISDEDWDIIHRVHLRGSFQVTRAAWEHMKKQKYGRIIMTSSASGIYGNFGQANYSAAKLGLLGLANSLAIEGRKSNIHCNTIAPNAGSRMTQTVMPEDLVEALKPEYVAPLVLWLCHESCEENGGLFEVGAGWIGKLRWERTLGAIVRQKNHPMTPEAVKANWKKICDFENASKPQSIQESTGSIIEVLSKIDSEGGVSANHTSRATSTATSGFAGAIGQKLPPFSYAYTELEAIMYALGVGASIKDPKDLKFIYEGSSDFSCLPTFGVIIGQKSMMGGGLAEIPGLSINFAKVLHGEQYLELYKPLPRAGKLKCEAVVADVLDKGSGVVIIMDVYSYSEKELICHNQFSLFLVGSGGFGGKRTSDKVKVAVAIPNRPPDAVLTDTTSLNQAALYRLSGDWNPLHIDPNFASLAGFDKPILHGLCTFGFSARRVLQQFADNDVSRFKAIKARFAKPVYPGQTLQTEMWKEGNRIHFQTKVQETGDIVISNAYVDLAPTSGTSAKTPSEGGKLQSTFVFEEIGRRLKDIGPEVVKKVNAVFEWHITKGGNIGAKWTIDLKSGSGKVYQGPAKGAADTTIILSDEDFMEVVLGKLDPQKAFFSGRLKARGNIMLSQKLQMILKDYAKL
Text: (§1) We acquired further evidence along these lines through studies using the N-terminal α,β-dehydrogenase and C-terminal hydratase fragments of HSD17B4 as well as the full-length protein. We evaluated the α,β-dehydrogenase activity using DL-3-hydroxylbutyryl-CoA as a substrate and the conversion of NAD^+ to NADH as a readout. We concomitantly measured the hydratase activity using crotonoyl-CoA as a substrate and the diminished ultraviolet absorption of the α,β-unsaturated thioester chromophore as readout. The full-length protein, as expected, had both enzyme activities (FIGS. 7A and 7B). The C-terminal-truncated fragments N318 and N634 but not the N-terminal-truncation fragment C919 had α,β-dehydrogenase activity (FIG. 7A). The C-terminal fragment N634 and the N-terminal fragment C919, but not the C-terminal fragment N318, had hydratase activity (FIG. 7B), as summarized in FIG. 3A.
(§2) The enzymatic activities of HSD17B4 were analyzed using the method reported by Novikov et al. (J. Biol. Chem., 1994, 269, 27125). […] The reaction was quantified by measuring the fluorescent product NADH (excitation: 340 nm; emission 460 nm). […] The reaction was quantified by measuring the remaining substrate using absorbance at 280 nm.

LS174T cancer cells [2] = assay: ATP analysis of treated cells; assay type: cell-based
Method: ATP analysis: Cells growing in 12-well plates were treated with DMSO or inhibitors, and lysed by adding 1 mL boiling D.D. water. Supernatants were analyzed by luminescence using ATP Determination Kit (Invitrogen, A22066).

LS174T cells = assay: Seahorse XF assay (OCR, ECAR); assay type: cell-based
Text: (§3) We further characterized the effects of cytisine-linked isoflavonoid 10c on energy metabolism using a Seahorse XF assay (FIG. 4D-F) that measured oxygen consumption rate (OCR), which was an indicator of mitochondrial respiration, and measured extracellular acidification rate (ECAR), which was largely the result of glycolysis. […] Similar results were found in DLD-1 colon cancer cells and PC-3 prostate cancer cells (FIGS. 8 and 9). These OCR findings were consistent with the prior evaluation of these cytisine-linked isoflavonoids that targeted the hydratase activity in HSD17B4, inhibited VLCFA beta-oxidation, depressed acetyl CoA generation, decreased the ratio of ATP/AMP, and triggered AMPK activation (FIG. 5).
(§4) Seahorse assay: 3×10^4 cells were seeded in XF96 Cell Culture microplate (80 μL of 3.75×10^5 cells/m:). On the next day, cells were treated with DMSO or inhibitors and analyzed using the Seahorse analyzer in Redox Metabolism Shared Resource Facility (RM SRF) at the Markey Cancer Center.

S6 = S6 phosphorylation, mTor pathway (Western blotting); assay type: cell-based; settings: PC-3 and LS174T cells
Method: Biochemistry. Western blotting: Cells were lysed in the appropriate volume of lysis buffer (50 mM HEPES, 100 mM NaCl, 2 mM EDTA, 1% glycerol, 50 mM NaF, 1 mM Na3VO4, 1% Triton X-100, with protease inhibitors). The following antibodies were used: HSD17B4 (GeneTex, GTX103864), AMPK (Cell Signaling, 2532), pAMPK (Cell Signaling, 2535), ACC (Cell Signaling, 3676), pACC (Cell Signaling, 11818), p^70 (Cell Signaling, 2708), p-p^70 (Cell Signaling, 9914), S6 (Cell Signaling, 2217), pS6 (Cell Signaling, 4858), MCCA (GeneTex, GTX110062), tubulin (Hybridoma Bank, E7), Actin (Sigma, A1978), His-tag (BD Pharmingen, 552564).

[3] = system: PC-3 prostate cancer cells; assay: Seahorse XF assay; assay type: cell-based; settings: PC-3 cells
Text: as §3, §4

DLD1 colon cancer cells = assay: Seahorse XF assay; assay type: cell-based
Text: as §3, §4

[4] = biological target: T2, hydratase activity of HSD17B4 (Homo sapiens, UniProt P51659); assay: HSD17B4 hydratase assay (crotonoyl CoA substrate); assay type: biochemical
T2 construct: His-tag; made in house; host or cells: E. coli BL21 (pET28)
T2 sequence (P51659 1-736): T1 sequence (P51659 1-736)
Text: as §1, §2

LS174T cancer cells [5] = assay: Acetyl-CoA analysis of treated cells; assay type: cell-based
Method: Cell Metabolism. Acetyl-CoA analysis: Cells grown in 6 cm plates were treated with DMSO or inhibitors, and harvested in lysis buffer (20 mM Tris pH 7.5, 150 mM NaCl, 1 mM EDTA, 1 mM EGTA, 1% Triton X-100, 2.5 mM sodium pyrophosphate, 1 mM Na3VO4, 1 ug/mL Leupeptin, 1 mM PMSF and 1:100 Protease inhibitor cocktail). Supernatants were analyzed using PicoProbe Acetyl CoA kit (Abcam, ab87546).

O=c1c(-c2ccc(Cl)cc2)coc2cc(OCCN3C[C@@H]4C[C@@H](C3)c3cccc(=O)n3C4)ccc12 [Compound 10c, (1 S,5S)-3-(2-((3-(4-chlorophenyl)-4-oxo-4H-chromen-7-yl)oxy)ethyl)-3,4,5,6-tetrahydro-1H-1,5-methanopyrido[1,2-a][1,5]diazocin-8(2H)-one]
effect on α,β-dehydrogenase activity [1]: no effect
level of ATP (LS174T cancer cells [2]): decreased the levels
respiration rates (LS174T cells): significantly reduced the respiration rates
levels of ATP production (LS174T cells; OCR and ECAR assays): reduced the levels of ATP production
phosphorylation of S6 (S6): inhibited the phosphorylation
respiration rate [3]: reduced respiration rate
ATP production (DLD1 colon cancer cells): reduced
respiration rate (DLD1 colon cancer cells): reduced respiration rate
effect on hydratase activity [4]: significantly inhibited
level of acetyl CoA (LS174T cancer cells [5]): decreased the levels
